Laboratory results: ChEMBL document CHEMBL4765290, “Design, synthesis and biological evaluation of novel dual-acting modulators targeting both estrogen receptor α (ERα) and lysine-specific demethylase 1 (LSD1) for treatment of breast cancer” (Eur J Med Chem, 2020)

Assays:
MCF7 [1] = test: cells; conditions: Homo sapiens, MCF7, 72 h
Description: Antiproliferative activity against human MCF7 cells assessed as reduction in cell viability after 72 hrs by MTT assay

[2] = target: Lysine-specific histone demethylase 1A (Homo sapiens, UniProt O60341)
Description: Inhibition of LSD1 (unknown origin) incubated for 90 mins by fluorescence based assay

MCF7 [3] = test: Induction of apoptosis in human MCF7 cells assessed as late apoptotic cells at 10 uM incubated for 24 hrs by AnnexinV-FITC and propidium iodide staining based flow cytometry analysis (reference value: 7.15 %); format: functional
MCF7 [4] = test: Induction of apoptosis in human MCF7 cells assessed as early apoptotic cells at 10 uM incubated for 24 hrs by AnnexinV-FITC and propidium iodide staining based flow cytometry analysis (reference value: 3.08 %); format: functional
MCF7 [5] = test: Induction of apoptosis in human MCF7 cells assessed as early apoptotic cells at 30 uM incubated for 24 hrs by AnnexinV-FITC and propidium iodide staining based flow cytometry analysis (reference value: 3.08 %); format: functional
MCF7 [6] = test: Induction of apoptosis in human MCF7 cells assessed as late apoptotic cells at 30 uM incubated for 24 hrs by AnnexinV-FITC and propidium iodide staining based flow cytometry analysis (reference value: 7.15 %); format: functional
MCF7 [7] = test: Induction of apoptosis in human MCF7 cells assessed as viable cells at 10 uM incubated for 24 hrs by AnnexinV-FITC and propidium iodide staining based flow cytometry analysis (reference value: 87.12 %); format: functional; conditions: read-out: Activity
MCF7 [8] = test: Induction of apoptosis in human MCF7 cells assessed as necrotic cells at 10 uM incubated for 24 hrs by AnnexinV-FITC and propidium iodide staining based flow cytometry analysis (reference value: 2.35 %); format: functional
MCF7 [9] = test: Induction of apoptosis in human MCF7 cells assessed as necrotic cells at 5 uM incubated for 24 hrs by AnnexinV-FITC and propidium iodide staining based flow cytometry analysis (reference value: 2.35 %); format: functional
MCF7 [10] = test: Induction of apoptosis in human MCF7 cells assessed as early apoptotic cells at 5 uM incubated for 24 hrs by AnnexinV-FITC and propidium iodide staining based flow cytometry analysis (reference value: 3.08 %); format: functional
MCF7 [11] = test: Induction of apoptosis in human MCF7 cells assessed as late apoptotic cells at 5 uM incubated for 24 hrs by AnnexinV-FITC and propidium iodide staining based flow cytometry analysis (reference value: 7.15 %); format: functional
MCF7 [12] = test: Induction of apoptosis in human MCF7 cells assessed as necrotic cells at 30 uM incubated for 24 hrs by AnnexinV-FITC and propidium iodide staining based flow cytometry analysis (reference value: 2.35 %); format: functional
MCF7 [13] = test: Induction of apoptosis in human MCF7 cells assessed as viable cells at 5 uM incubated for 24 hrs by AnnexinV-FITC and propidium iodide staining based flow cytometry analysis (reference value: 87.12 %); format: functional; conditions: read-out: Activity
MCF7 [14] = test: Induction of apoptosis in human MCF7 cells assessed as viable cells at 30 uM incubated for 24 hrs by AnnexinV-FITC and propidium iodide staining based flow cytometry analysis (reference value: 87.12 %); format: functional; conditions: read-out: Activity

Compound	IC50 (MCF7 [1]) [µM]	IC50 [2] [µM]	further results
O=S(=O)(Oc1cncc(Br)c1)C1CC2OC1C(c1ccc(O)cc1)=C2c1ccc(O)cc1 (stereo unspecified)	16.4	> 50	–
O=S(=O)(Oc1cncc(F)c1)C1CC2OC1C(c1ccc(O)cc1)=C2c1ccc(O)cc1 (stereo unspecified)	13.8	18.3	–
O=S(=O)(Oc1cccc(Cl)n1)C1CC2OC1C(c1ccc(O)cc1)=C2c1ccc(O)cc1 (stereo unspecified)	10.2	4.08	–
CCOC(=O)c1ccc(NS(=O)(=O)C2CC3OC2C(c2ccc(O)cc2)=C3c2ccc(O)cc2)cc1 (stereo unspecified)	18.8	> 50	–
O=S(=O)(Oc1cccnc1Cl)C1CC2OC1C(c1ccc(O)cc1)=C2c1ccc(O)cc1 (stereo unspecified)	30.2	7.13	–
Cc1cccc(NC(=O)C2CC3OC2C(c2ccc(O)cc2)=C3c2ccc(O)cc2)n1 (stereo unspecified)	26.2	> 50	–
O=C(Oc1cccnc1Br)C1CC2OC1C(c1ccc(O)cc1)=C2c1ccc(O)cc1 (stereo unspecified)	84	> 50	–
COC(=O)c1ccccc1NS(=O)(=O)C1CC2OC1C(c1ccc(O)cc1)=C2c1ccc(O)cc1 (stereo unspecified)	30.5	30	–
COC(=O)c1ccc(NS(=O)(=O)C2CC3OC2C(c2ccc(O)cc2)=C3c2ccc(O)cc2)cc1 (stereo unspecified)	15.1	13.2	–
O=C(NC1CC1)C1CC2OC1C(c1ccc(O)cc1)=C2c1ccc(O)cc1 (stereo unspecified)	> 100	> 50	–
O=S(=O)(Oc1cccc(Br)n1)C1CC2OC1C(c1ccc(O)cc1)=C2c1ccc(O)cc1 (stereo unspecified)	7.9	5.92	–
O=S(=O)(Oc1cccc2cccnc12)C1CC2OC1C(c1ccc(O)cc1)=C2c1ccc(O)cc1 (stereo unspecified)	16.7	> 50	–
O=C(Oc1cccnc1Cl)C1CC2OC1C(c1ccc(O)cc1)=C2c1ccc(O)cc1 (stereo unspecified)	38.2	17.4	–
O=S(=O)(Oc1cncc(Cl)c1)C1CC2OC1C(c1ccc(O)cc1)=C2c1ccc(O)cc1 (stereo unspecified)	49.4	> 50	–
Cc1cccc(NC(=O)C2CC3OC2C(c2ccc(O)cc2)=C3c2ccc(O)cc2)c1 (stereo unspecified)	44.5	> 50	–
O=S(=O)(Oc1ccc2ccccc2c1)C1CC2OC1C(c1ccc(O)cc1)=C2c1ccc(O)cc1 (stereo unspecified)	4.11	15.1	–
Cc1cc(=O)oc2cc(OS(=O)(=O)C3CC4OC3C(c3ccc(O)cc3)=C4c3ccc(O)cc3)ccc12 (stereo unspecified)	38.3	13.7	–
O=S(=O)(Oc1ccc(-c2ccccc2)cc1)C1CC2OC1C(c1ccc(O)cc1)=C2c1ccc(O)cc1 (stereo unspecified)	4.1	> 50	–
O=S(=O)(Oc1cccnc1Br)C1CC2OC1C(c1ccc(O)cc1)=C2c1ccc(O)cc1 (stereo unspecified)	7.84	12.3	–
O=C(NCc1ccc2c(c1)OCO2)C1CC2OC1C(c1ccc(O)cc1)=C2c1ccc(O)cc1 (stereo unspecified)	35.2	> 50	–
O=S(=O)(Oc1cccc(F)n1)C1CC2OC1C(c1ccc(O)cc1)=C2c1ccc(O)cc1 (stereo unspecified)	8.79	1.55	Activity (MCF7 [3]): 11.03%; Activity (MCF7 [4]): 7.1%; Activity (MCF7 [5]): 13.74%; Activity (MCF7 [6]): 23.57%; viability at 10 µM (MCF7 [7]): 79.7%; Activity (MCF7 [8]): 2.21%; Activity (MCF7 [9]): 2.08%; Activity (MCF7 [10]): 4.62%; Activity (MCF7 [11]): 8.57%; Activity (MCF7 [12]): 5.79%; viability at 5 µM (MCF7 [13]): 84.7%; viability at 30 µM (MCF7 [14]): 56.9%
O=S(=O)(Oc1cccc2ccccc12)C1CC2OC1C(c1ccc(O)cc1)=C2c1ccc(O)cc1 (stereo unspecified)	37.7	> 50	–
O=c1cc(C(F)(F)F)c2ccc(OS(=O)(=O)C3CC4OC3C(c3ccc(O)cc3)=C4c3ccc(O)cc3)cc2o1 (stereo unspecified)	12.5	> 50	–
O=S(=O)(Oc1ccccc1)C1CC2OC1C(c1ccc(O)cc1)=C2c1ccc(O)cc1 (stereo unspecified)	28.7	> 50	–
CC/C(=C(\c1ccc(O)cc1)c1ccc(OCCN(C)C)cc1)c1ccccc1 [AFIMOXIFENE]	–	> 50	–
